Patent US20210300939A1, “Single Molecule Compounds Providing Multi-Target Inhibition of BTK and Other Proteins and Methods of Use Thereof” (SignalRx Pharmaceuticals, Inc., priority 2018, published 2021)

Columns and labels:
[1] = biological target: T1, BRD4-1 (binding domain 1 of BRD4) (Homo sapiens, UniProt O60885); experiment: BRD4 binding domain 1 inhibition (Reaction Biology Corp.); settings: 10-point curve; read-out: Target IC50 BRD4-1
T1 construct: purchased Reaction Biology Corp., Malvern, Pa; (contract assay)
Experimental: (§1) The BTK, PI3K, and/or bromodomain inhibitory activity of a compound of the invention can be determined by methods known to the skilled artisan, or by procuring relevant analysis by a commercial vendor offering such services. […] In vivo, PI3K inhibition can be determined from target tissue biopsies by standard tissue processing in which cells are disrupted and Western Blot analysis is performed to determine the presence or absence of pAKT (substrate of PI3K) relative to a control sample. PI3K inhibition assays and BTK inhibition assays are known in the art and can be procured commercially through vendors such as Reaction Biology (Malvern, Pa.). The activity of a compound of the invention as an inhibitor of a bromodomain-containing protein, such as a BET protein, including BRD2, BRD3, BRD4, and/or BRDT, or an isoform or mutant thereof, may be determined in vitro, in vivo, or in a cell line. In vitro assays include assays that determine inhibition of bromodomain-containing proteins. Alternatively, inhibitor binding may be determined by running a competition experiment where a provided compound is incubated with a bromodomain-containing protein, such as a BET protein bound to known ligands, labeled or unlabeled. In vitro bromodomain inhibition assays can be performed using Alpha Screen Technology (Perkin Elmer Life and Analytical Sciences, Shelton, Conn.). In vivo bromodomain inhibition can be determined indirectly by evaluating the amount of a protein whose gene transcription is influenced or controlled by the bromodomain protein, for example, MYCN protein transcription is controlled by BRD4 (J. E. Delmore et al., Cell 2011, 146, 904-917; A. Puissant, Cancer Discov. 2013, 3, 308-323).
(§2) Compounds of the invention were analyzed for their ability to inhibit target proteins in vitro. PI3K alpha, gamma, and delta inhibition activity was determined by Thermo Fisher Scientific-Biosciences Life Sciences Solutions, Madison, Wis. The bromodomain protein inhibition (binding domain 1 and 2 of BRD4) was determined at Reaction Biology Corp., Malvern, Pa. BTK inhibition was performed by Reaction Biology Corp., Malvern, Pa.
(§3) Additional information regarding the testing procedures is available at each company's website on the internet. The IC50 data was calculated from a 10-point curve by the vendor and is compiled in ranges in the Table 6 below.

[2] = biological target: T2, BRD4-2 (binding domain 2 of BRD4) (Homo sapiens, UniProt O60885); experiment: BRD4 binding domain 2 inhibition (Reaction Biology Corp.); settings: 10-point curve; read-out: Target IC50 BRD4-2
T2 construct: purchased Reaction Biology Corp., Malvern, Pa; (contract assay)
Experimental: as §1, §2, §3

PI3K δ = biological target: T3, PI3K δ (Homo sapiens, UniProt O00329); experiment: PI3K delta inhibition (Thermo Fisher Scientific); assay type: biochemical; settings: 10-point curve; read-out: Target IC50 PI3K δ
T3 construct: purchased Thermo Fisher Scientific-Biosciences Life Sciences Solutions, Madison, Wis; (contract assay)
Experimental: as §1, §2, §3

PI3K γ = biological target: T4, PI3K γ (Homo sapiens, UniProt P48736); experiment: PI3K gamma inhibition (Thermo Fisher Scientific); assay type: biochemical; settings: 10-point curve; read-out: Target IC50 PI3K γ
T4 construct: purchased Thermo Fisher Scientific-Biosciences Life Sciences Solutions, Madison, Wis; (contract assay)
Experimental: as §1, §2, §3

BTK (WT) = biological target: T5, BTK (WT) (Homo sapiens, UniProt Q06187); experiment: native BTK inhibition (Reaction Biology Corp.); assay type: biochemical; settings: 10-point curve; read-out: Target IC50 BTK (WT)
T5 construct: purchased Reaction Biology Corp., Malvern, Pa; (contract assay)
Experimental: as §2, §3

BTK (C481S) = biological target: T6, BTK (C481S) (Homo sapiens, UniProt Q06187, C481S); experiment: BTK cysteine mutant C481S inhibition (Reaction Biology Corp.); assay type: biochemical; settings: for IC50: 10-point curve, read-out: Target IC50 BTK (C481S); for Ratio C481S/WT: ratio of the BTK IC50 values, C481S over wild-type
T6 construct: purchased Reaction Biology Corp., Malvern, Pa; (contract assay)
Experimental: as §2, §3

JeKo-1 cells [3] = experiment: Cell viability (Celltiter-Glo), JeKo-1; assay type: cell-based; settings: Homo sapiens, 48 hours
Experimental: (§4) The results of this experiment are shown in FIGS. 1A-1C, and in Table 7 below. Human mantle cell lymphoma cell lines were grown in 96 well plates with 5000 cells per well in RPMI 1640 media supplemented with 10% fetal bovine serum. Cells were treated for 48 hours with a concentration range of each compound from 50 nM to 50 uM. Cell viability a measure of viable cell numbers was determined using a Celltiter-Glo^R reagent for each concentration in order to construct an IC50 curve for each compound in each cell line.

Mino cells [4] = experiment: Cell viability (Celltiter-Glo), Mino; assay type: cell-based; settings: Homo sapiens, 48 hours
Experimental: as §4

Granta519 cells = experiment: Cell viability (Celltiter-Glo), Granta519; assay type: cell-based; settings: Homo sapiens, Granta-519, 48 hours
Experimental: as §4

[5] = system: Human mantle cell lymphoma cell lines; experiment: Cell viability, mantle cell lymphoma cell lines (overall conclusion); assay type: cell-based; settings: in vitro, 48 hours
Experimental: as §4

PI3K α = biological target: T7, PI3K α (Homo sapiens, UniProt P42336); experiment: PI3K alpha inhibition (Thermo Fisher Scientific); assay type: biochemical; settings: 10-point curve; read-out: Target IC50 PI3K α
T7 construct: purchased Thermo Fisher Scientific-Biosciences Life Sciences Solutions, Madison, Wis; (contract assay)
Experimental: as §1, §2, §3

JeKo-1 cells [6] = experiment: Percentage cells in apoptosis, JeKo-1; assay type: cell-based, human
From the text: (§5) Additionally apoptosis data was obtained in both JeKo and Mino cells for compound 7.

Mino cells [7] = experiment: Percentage cells in apoptosis, Mino; assay type: cell-based, human; settings: 24-hour
From the text: as §5

T6 sequence (Q06187 whole entry C481S): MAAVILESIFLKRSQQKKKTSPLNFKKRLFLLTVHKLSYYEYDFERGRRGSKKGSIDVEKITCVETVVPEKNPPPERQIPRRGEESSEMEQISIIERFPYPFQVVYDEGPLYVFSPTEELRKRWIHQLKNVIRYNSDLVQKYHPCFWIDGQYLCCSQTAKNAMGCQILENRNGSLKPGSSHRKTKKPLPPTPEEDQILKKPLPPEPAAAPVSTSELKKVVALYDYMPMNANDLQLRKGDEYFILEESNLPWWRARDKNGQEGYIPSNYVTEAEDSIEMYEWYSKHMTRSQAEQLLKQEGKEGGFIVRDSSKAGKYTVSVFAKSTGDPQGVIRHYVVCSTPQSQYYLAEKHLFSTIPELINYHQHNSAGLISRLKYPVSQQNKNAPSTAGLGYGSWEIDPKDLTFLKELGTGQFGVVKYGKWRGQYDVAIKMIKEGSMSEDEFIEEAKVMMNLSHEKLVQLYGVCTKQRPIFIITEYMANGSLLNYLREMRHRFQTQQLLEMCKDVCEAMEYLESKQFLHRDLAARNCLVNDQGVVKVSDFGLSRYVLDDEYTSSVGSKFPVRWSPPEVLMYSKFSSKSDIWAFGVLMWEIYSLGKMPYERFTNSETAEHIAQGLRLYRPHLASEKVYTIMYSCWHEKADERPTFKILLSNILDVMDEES
T3 sequence (O00329 whole entry): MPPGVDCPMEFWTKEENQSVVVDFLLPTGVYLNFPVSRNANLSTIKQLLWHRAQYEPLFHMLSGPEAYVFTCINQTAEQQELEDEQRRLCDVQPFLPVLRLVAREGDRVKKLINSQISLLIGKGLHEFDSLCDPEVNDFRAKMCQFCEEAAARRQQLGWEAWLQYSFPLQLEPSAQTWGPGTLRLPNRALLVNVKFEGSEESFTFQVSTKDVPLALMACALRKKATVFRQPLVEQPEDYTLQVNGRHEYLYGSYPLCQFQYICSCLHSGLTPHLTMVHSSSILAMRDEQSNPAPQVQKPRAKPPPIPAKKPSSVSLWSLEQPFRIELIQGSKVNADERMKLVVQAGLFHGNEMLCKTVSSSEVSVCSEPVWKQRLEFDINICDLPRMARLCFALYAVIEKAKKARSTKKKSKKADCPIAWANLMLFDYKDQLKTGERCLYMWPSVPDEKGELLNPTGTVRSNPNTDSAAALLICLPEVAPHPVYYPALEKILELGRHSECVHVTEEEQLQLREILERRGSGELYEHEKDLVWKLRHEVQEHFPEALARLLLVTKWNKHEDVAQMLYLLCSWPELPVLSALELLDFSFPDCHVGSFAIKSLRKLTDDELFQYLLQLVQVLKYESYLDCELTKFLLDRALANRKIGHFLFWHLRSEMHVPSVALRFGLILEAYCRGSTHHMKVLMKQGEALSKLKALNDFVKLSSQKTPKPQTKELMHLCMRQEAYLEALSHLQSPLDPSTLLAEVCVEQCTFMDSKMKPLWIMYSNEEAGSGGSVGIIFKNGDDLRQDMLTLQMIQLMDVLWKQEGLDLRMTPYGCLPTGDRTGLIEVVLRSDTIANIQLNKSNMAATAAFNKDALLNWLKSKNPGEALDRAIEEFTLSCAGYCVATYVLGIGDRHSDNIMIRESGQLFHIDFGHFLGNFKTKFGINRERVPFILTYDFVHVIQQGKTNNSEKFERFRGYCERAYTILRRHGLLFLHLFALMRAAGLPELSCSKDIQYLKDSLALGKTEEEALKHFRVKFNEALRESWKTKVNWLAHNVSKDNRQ
T3 sequence (P27986 whole entry partner): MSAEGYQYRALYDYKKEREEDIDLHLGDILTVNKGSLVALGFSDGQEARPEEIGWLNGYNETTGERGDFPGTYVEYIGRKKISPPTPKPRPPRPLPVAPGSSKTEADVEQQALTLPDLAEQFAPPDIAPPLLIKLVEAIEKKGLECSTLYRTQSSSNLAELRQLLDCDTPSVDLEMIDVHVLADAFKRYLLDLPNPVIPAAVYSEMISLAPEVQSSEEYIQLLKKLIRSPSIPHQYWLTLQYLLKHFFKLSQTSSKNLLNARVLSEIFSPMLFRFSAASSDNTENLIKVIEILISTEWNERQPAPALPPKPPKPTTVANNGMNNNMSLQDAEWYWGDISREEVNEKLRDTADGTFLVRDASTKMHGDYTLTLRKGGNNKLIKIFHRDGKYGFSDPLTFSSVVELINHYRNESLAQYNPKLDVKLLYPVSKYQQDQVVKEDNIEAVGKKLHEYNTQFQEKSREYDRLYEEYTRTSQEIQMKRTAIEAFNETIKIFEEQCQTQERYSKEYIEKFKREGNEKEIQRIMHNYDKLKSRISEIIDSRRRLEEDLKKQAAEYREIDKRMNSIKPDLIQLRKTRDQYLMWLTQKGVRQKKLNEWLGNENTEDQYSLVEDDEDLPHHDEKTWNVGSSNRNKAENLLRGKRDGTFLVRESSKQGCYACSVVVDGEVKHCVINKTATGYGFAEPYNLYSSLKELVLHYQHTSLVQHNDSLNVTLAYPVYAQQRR
T4 sequence (P48736 whole entry): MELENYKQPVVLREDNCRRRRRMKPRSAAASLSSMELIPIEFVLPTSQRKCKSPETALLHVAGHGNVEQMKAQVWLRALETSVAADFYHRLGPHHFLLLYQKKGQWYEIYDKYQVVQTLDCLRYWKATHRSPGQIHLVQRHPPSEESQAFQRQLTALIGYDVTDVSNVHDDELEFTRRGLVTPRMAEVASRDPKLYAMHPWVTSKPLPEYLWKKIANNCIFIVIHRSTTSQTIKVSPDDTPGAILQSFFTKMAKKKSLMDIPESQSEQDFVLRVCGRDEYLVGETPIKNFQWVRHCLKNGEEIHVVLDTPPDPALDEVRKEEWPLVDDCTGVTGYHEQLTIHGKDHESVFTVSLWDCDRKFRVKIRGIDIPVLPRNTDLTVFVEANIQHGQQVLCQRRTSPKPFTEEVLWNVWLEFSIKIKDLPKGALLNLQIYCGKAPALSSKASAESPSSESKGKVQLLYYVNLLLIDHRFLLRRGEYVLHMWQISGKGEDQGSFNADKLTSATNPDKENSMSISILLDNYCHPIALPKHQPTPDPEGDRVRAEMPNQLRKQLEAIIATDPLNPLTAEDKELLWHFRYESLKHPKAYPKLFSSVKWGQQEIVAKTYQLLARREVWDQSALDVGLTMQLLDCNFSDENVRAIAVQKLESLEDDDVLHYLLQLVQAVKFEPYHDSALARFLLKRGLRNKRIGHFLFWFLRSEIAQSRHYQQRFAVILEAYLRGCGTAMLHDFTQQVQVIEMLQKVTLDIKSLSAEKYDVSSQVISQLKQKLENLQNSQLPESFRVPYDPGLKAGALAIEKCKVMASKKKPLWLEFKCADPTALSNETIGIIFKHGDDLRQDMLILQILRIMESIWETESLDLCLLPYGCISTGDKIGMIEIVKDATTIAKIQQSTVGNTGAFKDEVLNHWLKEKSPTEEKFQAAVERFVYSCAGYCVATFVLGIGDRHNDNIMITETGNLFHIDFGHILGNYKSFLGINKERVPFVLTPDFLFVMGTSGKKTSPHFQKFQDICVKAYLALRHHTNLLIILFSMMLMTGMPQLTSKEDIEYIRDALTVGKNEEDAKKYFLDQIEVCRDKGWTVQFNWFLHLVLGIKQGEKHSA
T5 sequence (Q06187 whole entry): as the sequence (Q06187 whole entry C481S) above, with S481C counted along it
T7 sequence (P42336 whole entry): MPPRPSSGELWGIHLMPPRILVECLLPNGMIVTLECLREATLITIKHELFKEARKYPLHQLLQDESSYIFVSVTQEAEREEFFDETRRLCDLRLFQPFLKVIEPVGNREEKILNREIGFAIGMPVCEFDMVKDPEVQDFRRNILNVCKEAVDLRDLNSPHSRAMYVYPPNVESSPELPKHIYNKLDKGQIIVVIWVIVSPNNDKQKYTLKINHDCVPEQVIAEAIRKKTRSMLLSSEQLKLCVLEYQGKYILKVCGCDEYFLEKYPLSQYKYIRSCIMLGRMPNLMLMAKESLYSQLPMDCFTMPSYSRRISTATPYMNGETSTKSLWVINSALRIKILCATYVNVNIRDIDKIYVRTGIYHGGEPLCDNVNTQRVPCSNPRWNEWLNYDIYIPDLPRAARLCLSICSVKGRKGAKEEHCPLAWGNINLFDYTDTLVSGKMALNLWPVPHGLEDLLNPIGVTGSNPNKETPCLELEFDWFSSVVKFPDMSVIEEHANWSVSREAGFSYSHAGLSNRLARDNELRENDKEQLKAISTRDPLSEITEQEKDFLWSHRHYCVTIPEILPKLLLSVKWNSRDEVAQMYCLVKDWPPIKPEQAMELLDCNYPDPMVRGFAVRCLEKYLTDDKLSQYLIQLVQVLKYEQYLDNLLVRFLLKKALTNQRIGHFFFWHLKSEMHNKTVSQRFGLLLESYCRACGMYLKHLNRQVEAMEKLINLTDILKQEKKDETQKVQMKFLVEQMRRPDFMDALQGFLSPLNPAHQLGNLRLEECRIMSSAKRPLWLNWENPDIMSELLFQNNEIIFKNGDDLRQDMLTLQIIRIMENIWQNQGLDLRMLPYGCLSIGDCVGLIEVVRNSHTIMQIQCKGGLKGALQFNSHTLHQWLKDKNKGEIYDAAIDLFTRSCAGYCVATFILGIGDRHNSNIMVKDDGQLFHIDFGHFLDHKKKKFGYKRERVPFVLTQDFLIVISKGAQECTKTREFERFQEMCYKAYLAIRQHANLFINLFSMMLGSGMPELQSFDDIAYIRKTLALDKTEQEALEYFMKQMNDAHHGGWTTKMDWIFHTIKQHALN
T7 sequence (P27986 whole entry partner): as the sequence (P27986 whole entry partner) above

Structure (SMILES)	IC50 [1] [µM]	IC50 [2] [µM]	IC50 (PI3K δ) [µM]	IC50 (PI3K γ) [µM]	IC50 (BTK (WT)) [µM]	IC50 (BTK (C481S)) [µM]	IC50 (PI3K α) [µM]	Ratio C481S/WT (BTK (C481S))	also measured
C=CC(=O)Nc1cccc(-c2csc3c(=S)cc(N4CCOCC4)oc23)c1 [Compound 2, 1-[m-(5-Morpholino-7-thioxo-4-oxa-1-thia-3-indenyl)phenylamino]-2-propen-1-one]	10 to 30	1 to 10	< 1	< 1	1 to 10	10 to 30	< 1	8.1	–
C=CC(=O)Nc1cccc(-c2csc3c(=O)cc(N4CCNCC4)oc23)c1.O=C(O)C(F)(F)F [Compound 3, 1-{m-[7-Oxo-5-(1-piperazinyl)-4-oxa-1-thia-3-indenyl]phenylamino}-2-propen-1-one]	< 1	1 to 10	> 50	> 50	1 to 10	30 to 50	> 50	24.5	–
C=CC(=O)N1CCOc2ccc(-c3csc4c(=O)cc(N5CCN(C(=O)OC(C)(C)C)CC5)oc34)cc21 [Compound 4, tert-butyl 4-[3-(4-acryloyl-1-oxa-4-aza-3,4-dihydro-2H-naphth-6-yl)-7-oxo-4-oxa-1-thia-5-indenyl]-1-piperazinecarboxylate]	< 1	1 to 10	1 to 10	10 to 30	< 1	10 to 30	10 to 30	212	–
C=CC(=O)Nc1cc(OC)cc(-c2csc3c(=O)cc(N4CCOCC4)oc23)c1 [Compound 8, 1-[5-Methoxy-3-(5-morpholino-7-oxo-4-oxa-1-thia-3-indenyl)phenylamino]-2-propen-1-one]	< 1	1 to 10	< 1	< 1	< 1	> 50	< 1	>60	–
CCCCC/C=C/C(=O)Nc1cccc(-c2csc3c(=O)cc(N4CCOCC4)oc23)c1 [Compound 10, (E)-1-[m-(5-Morpholino-7-oxo-4-oxa-1-thia-3-indenyl)phenylamino]-2-octen-1-one]	1 to 10	10 to 30	1 to 10	10 to 30	–	–	1 to 10	–	–
N#C/C(=C\C1CC1)C(=O)Nc1cccc(-c2csc3c(=O)cc(N4CCOCC4)oc23)c1 [Compound 11, (E)-3-Cyclopropyl-2-{[m-(5-morpholino-7-oxo-4-oxa-1-thia-3-indenyl)phenylamino]carbonyl}acrylonitrile]	1 to 10	< 1	< 1	1 to 10	10 to 30	10 to 30	< 1	1.3	–
CC#CC(=O)Nc1cccc(-c2csc3c(=O)cc(N4CCOCC4)oc23)c1 [Compound 12, 1-[m-(5-Morpholino-7-oxo-4-oxa-1-thia-3-indenyl)phenylamino]-2-butyn-1-one]	< 1	< 1	< 1	< 1	1 to 10	10 to 30	< 1	15.8	–
C=CC(=O)N1CCC[C@@H](n2nc(-c3ccc(Oc4ccccc4)cc3)c3c(N)ncnc32)C1 [Ibrutinib]	–	–	–	–	–	–	–	–	IC50 (JeKo-1 cells [3]): > 50 µM; IC50 (Mino cells [4]): 1 to 10 µM; IC50 (Granta519 cells): 10 to 30 µM; Percentage cells in apoptosis (JeKo-1 cells [6]; JeKo-1, 24-hour, Early): + (less than 5%); Percentage cells in apoptosis (JeKo-1 cells [6]; JeKo-1, 24-hour, Late): + (less than 5%); Percentage cells in apoptosis (JeKo-1 cells [6]; JeKo-1, 24-hour, Total): + (less than 5%); Percentage cells in apoptosis (JeKo-1 cells [6]; JeKo-1, 48-hour, Early): + (less than 5%); Percentage cells in apoptosis (JeKo-1 cells [6]; JeKo-1, 48-hour, Late): + (less than 5%); Percentage cells in apoptosis (JeKo-1 cells [6]; JeKo-1, 48-hour, Total): ++ (between 5% and 10%); Percentage cells in apoptosis (Mino cells [7]; Early): ++ (between 5% and 10%); Percentage cells in apoptosis (Mino cells [7]; Late): + (less than 5%); Percentage cells in apoptosis (Mino cells [7]; Total): +++ (between 10% and 30%)
CN[C@@H]1C[C@H]2O[C@@](C)([C@@H]1OC)n1c3ccccc3c3c4c(c5c6ccccc6n2c5c31)C(=O)NC4 [Staurosporine]	–	–	–	–	–	–	–	–	Percentage cells in apoptosis (JeKo-1 cells [6]; JeKo-1, 24-hour, Early): ++ (between 5% and 10%); Percentage cells in apoptosis (JeKo-1 cells [6]; JeKo-1, 24-hour, Late): + (less than 5%); Percentage cells in apoptosis (JeKo-1 cells [6]; JeKo-1, 24-hour, Total): +++ (between 10% and 30%); Percentage cells in apoptosis (JeKo-1 cells [6]; JeKo-1, 48-hour, Early): +++ (between 10% and 30%); Percentage cells in apoptosis (JeKo-1 cells [6]; JeKo-1, 48-hour, Late): +++ (between 10% and 30%); Percentage cells in apoptosis (JeKo-1 cells [6]; JeKo-1, 48-hour, Total): ++++ (between 30% and 50%); Percentage cells in apoptosis (Mino cells [7]; Early): ++++ (between 30% and 50%); Percentage cells in apoptosis (Mino cells [7]; Late): ++++ (between 30% and 50%); Percentage cells in apoptosis (Mino cells [7]; Total): +++++ (more than 50%)

Now from value to compound, other results behind:

IC50 [1] [µM]	IC50 [2] [µM]	IC50 (PI3K δ) [µM]	IC50 (PI3K γ) [µM]	IC50 (BTK (WT)) [µM]	IC50 (BTK (C481S)) [µM]	IC50 (PI3K α) [µM]	Ratio C481S/WT (BTK (C481S))	Structure (SMILES)	also measured
< 1	1 to 10	< 1	< 1	10 to 30	10 to 30	–	–	O=c1cc(N2CCOCC2)oc2c(-c3ccc4c(c3)OCCO4)csc12 [Compound 0, reference compound]	IC50 (JeKo-1 cells [3]): < 1 µM; IC50 (Mino cells [4]): < 1 µM; IC50 (Granta519 cells): 1 to 10 µM; Potency in reducing mantle cell lymphoma viability as compared to Ibrutinib [5]: markedly more potent
< 1	1 to 10	1 to 10	> 50	< 1	10 to 30	10 to 30	52.0	C=CC(=O)N1CCOc2ccc(-c3csc4c(=O)cc(N5CCNCC5)oc34)cc21 [Compound 5, 1-{7-[7-Oxo-5-(1-piperazinyl)-4-oxa-1-thia-3-indenyl]-4-oxa-1-aza-2,3-dihydro-1H-naphth-1-yl}-2-propen-1-one]	–
1 to 10	10 to 30	1 to 10	> 50	< 1	1 to 10	30 to 50	11.2	C=CC(=O)N1CCOc2ccc(-c3csc4c(=O)cc(N5CCN(C)CC5)oc34)cc21 [Compound 6, 1-(7[5-(4-Methyl-1-piperazinyl)-7-oxo-4-oxa-1-thia-3-indenyl]-4-oxa-1-aza-2,3-dihydro-1H-naphth-1-yl]-2-propen-1-one]	–
< 1	< 1	< 1	< 1	< 1	< 1	< 1	1402	C=CS(=O)(=O)N1CCOc2ccc(-c3csc4c(=O)cc(N5CCOCC5)oc34)cc21 [Compound 21, 5-Morpholino-3-[4-(vinylsulfonyl)-1-oxa-4-aza-3,4-dihydro-2H-naphth-6-yl]-4-oxa-1-thia-7-indenone]	–
< 1	< 1	< 1	< 1	< 1	< 1	< 1	>20K	C=CS(=O)(=O)Nc1cccc(-c2csc3c(=O)cc(N4CCOCC4)oc23)c1 [II-18, 5-morpholino-3-[m-(vinylsulfonylamino)phenyl]-4-oxa-1-thia-7-indenone]	–
